One assay relates to FSHD-myotubes. In words: DUX4-mediated myotube death / apoptosis in FSHD myotubes differentiated in KOSR medium. It is filed as cell-based, human. To be noted: for DUX4-mediated myotube death: FSHD-myotubes, KOSR differentiation medium, data not shown. The protocol:
Primary human myoblasts were obtained by written informed consent through the Fields Center at the University of Rochester cell bank. […] Pharmacological inhibitor of glycogen synthase kinase-3-β (GSKi) was used at a final concentration of 3 μM (CHIR99021, STEMGENT; Cambridge. Mass.).
(§1) Immunofluorescent staining for DUX4 was performed using the E5-5 rabbit monoclonal antibody to the C-terminus of DUX4 ^34. Staining was performed by fixing the cells in 4% paraformaldehyde for 10 mins at room temperature, washing with PBS, permeablizing with 0.5% TritonX-100 in PBS for 10 mins at room temperature. The cells were then washed again in PBS and incubated overnight in a 1:10 dilution of the E5-5 antibody. The following day, the cells were washed 3×5 min in PBS and stained using a fluorescent conjugated secondary goat-anti rabbit secondary antibody for 1-2 hr at room temperature. Following a final wash, the cells were counterstained with 4′,6-Diamidino-2-phenylindole dihydrochloride (DAPI, SIGMA ALDRICH), and visualized by microscopy using UV illumination.
To quantify DUX4 expression, the Nikon Ti Eclipse microscope was programmed using the Nikon Elements software to take 36 pictures at random on a 35 mm culture dish, or to scan an entire well of a 384 well dish. These images were then manually inspected and DUX4 (+) nuclei counted. To determine the myotube index, the Nikon Elements software was used to create binary masks of the DAPI and MHC channels for each image. This technique created a border around each nucleus or cluster of nuclei which could then be used to measure the sum pixel intensity from the DAPI channel. The average sum pixel intensity for single nuclei from each image was determined, and used to calculate the number of nuclei within clusters. By intersecting the binary images from the DAPI and MHC channels the inventors could exclude the nuclei that were outside of MHC(+) myotubes, and create a myotube fusion index. The myotube fusion index was compared to manual counts to confirm accuracy of the calculations.

Assay [1] relates to DUX4. Briefly: Immunofluorescent count of DUX4(+) nuclei in MHC(+) myotubes. It is filed as cell-based, human. To be noted: for reduction in the number of nuclei expressing DUX4: FSHD1(2349) myotubes, KOSR medium. How it is done:
(§2) Primary human myoblasts were obtained by written informed consent through the Fields Center at the University of Rochester cell bank. Myoblasts were grown in F10 medium (INVITROGEN, Carlsbad, Calif.) supplemented with 20% fetal bovine serum (FBS; THERMO SCIENTIFIC (HYCLONE), and 50 U/50 μg penicillin/streptomycin (Pen-Strep; INVITROGEN), 10 ng bFGF (INVITROGEN), and 1 μM dexamethasone (SIGMA ALDRICH; St. Louis, […].)^9. Differentiation was induced using F10 medium supplemented with 1% equine serum and ITS supplement (insulin 0.1%, 0.000067% sodium selenite, 0.055% transferrin; INVITROGEN), or in DMEM:F12 (1:1) with 3.151 g/L glucose, 10 mM non-essential amino acids (INVITROGEN), […] sodium pyruvate, 20% knockout serum replacer (INVITROGEN, #10828010). Pharmacological inhibitor of glycogen synthase kinase-3-β (GSKi) was used at a final concentration of 3 μM (CHIR99021, STEMGENT; Cambridge. Mass.). Recombinant human Wnt3A was used at a concentration of 250 ng/mL, and confirmed to be bioactive prior to use in the assays described herein.
as §1, with “Following a final wash, the cells were counterstained with 4′,6-Diamidino-2-phenylindole dihydrochloride (DAPI, SIGMA ALDRICH), and visualized by microscopy using UV illumination.” left out
To quantify DUX4 expression, the Nikon Ti Eclipse microscope was programmed using the Nikon Elements software to take 36 pictures at random on a 35 mm culture dish, or to scan an entire well of a 384 well dish. These images were then manually inspected and DUX4 (+) nuclei counted. […] The average sum pixel intensity for single nuclei from each image was determined, and used to calculate the number of nuclei within clusters. […]

Another assay has as its system DUX4 promoter. In words: D4Z4(FFL) DUX4 promoter luciferase reporter in C2C12 cells. It is filed as cell-based. To be noted: 3 μM GSKi, vs DMSO. How it is done:
The D4Z4 regulatory region controlling the expression of DUX4^31 was subcloned upstream of the open reading from of the pGL3-basic vector (pGL3) to make D4Z4(FFL). The D4Z4(FFL) was excised using XbaI/SpeI restriction enzymes and ligated into the SpeI site of a 3rd generation lentiviral vector multiple cloning site (pRRL-sinc-PPT-MCS; Gift from Dr. Grant Trobridge).
Cells transduced with D4Z4(FFL) lentivirus vector were seeded in a 96 well dish. Thirty minutes prior to the assay, Hoescht Dye was added to the cell culture medium to a final concentration of 5 μm, and 30 min later the plate was analyzed for DNA content by measuring fluorescence at 355 nm using a multiwell plate reader (ENVISION; PERKIN-ELMER). An equal volume of STEADY-GLO (PROMEGA) was added to each well, and transferred to an opaque dish. Luminescence was read using the plate reader, and normalized to DNA content for each well.
In general terms: A reporter such as luciferase makes a cellular process visible.

For assay [2], the system named is DUX4. Briefly: RT PCR of DUX4 transcripts in primary human cells. It is filed as cell-based. The following applies: normal(NR201) and FSHD2(2305) primary human cells, 3 μM GSKi. The protocol: as §2
RNA was isolated by TRIZOL extraction according to the manufacturers protocol (INVITROGEN), except that the final ethanol precipitate was resuspended 1×DNase I buffer and 5 U DNase I for 15 mins and the RNA was extracted with phenol/chloroform and precipitated with ethanol using RNase-free glycogen (NEW ENGLAND BIOLABS) as a carrier. […]

A further assay concerns FSHD myotubes. Briefly: Cell viability assay (ATP content normalized to DNA content). It is filed as cell-based, human. To be noted: cultured in the absence or presence of GSKi. How it is done: Hoescht Dye was added to cells in culture for 30 minutes at a final concentration of 5 μM. Following detachment with trypsin a 50 μL aliquot of the cells was assayed for fluorescence at 355 nm to give an absorbance value for DNA content. An equal volume of CELL TITRE GLO (PROMEGA) was then added to the aliquot, and luminescence was measured. The luminescent value was normalized to the absorbance value for DNA content.

Entries after “also recorded” stand apart in the source; their conditions may differ.

Turning to `O=C(NCc1ccccc1)c1csc(Nc2ccncn2)n1` [Thiazovivin], in the assay on FSHD-myotubes, the DUX4-mediated myotube death entry is listed as “also prevented DUX4-mediated myotube death”. Also, the “reduction in the number of nuclei expressing DUX4” value in the assay with DUX4 [1] (0.5 μM Thiazovivin) was found to be 10 fold.
With `C[C@@H](N)[C@H]1CC[C@H](C(=O)Nc2ccncc2)CC1` [Y-27632], the DUX4-mediated myotube death result in the assay on FSHD-myotubes is listed as “also prevented DUX4-mediated myotube death”. In addition, the “reduction in the number of nuclei expressing DUX4” value with DUX4 [1] (10 μM Y-27632) came to 10 fold.
`OCCS` [β-mercapto-ethanol]: in the assay with FSHD-myotubes, the DUX4-mediated myotube death entry is on record as “observed DUX4-dependent myotube apoptosis despite treatments”.
For the compound `Cc1c[nH]c(-c2cnc(NCCNc3ccc(C#N)cn3)nc2-c2ccc(Cl)cc2Cl)n1` [GSKi], in the assay with FSHD-myotubes (FSHD myotubes, GSKi treatment alone (3 μM)), the myotube apoptosis entry is reported as “did not prevent myotube apoptosis; also recorded: insufficient to prevent apoptosis”. Also, the “reduction in the number of DUX4(+) nuclei in myotubes” value in the assay on DUX4 [1] (FSHD myoblasts differentiated in the presence of 3 μM GSKi, three cell lines) is reported as “greater than 50%”. The “upregulation of DUX4 expression during myotube formation (luciferase activity normalized to DNA content)” value in the assay with DUX4 promoter is “reduced the characteristic upregulation of DUX4 expression”. Also, the “upregulation of DUX4 expression during myotube formation (DUX4 transcripts)” value with DUX4 [2] is reported as “reduced the characteristic upregulation of DUX4 expression”. In addition, in the assay on FSHD myotubes, the “ATP content of myoblasts or myotubes” value is “No difference”.
With `Cc1ccc(C(=O)Cn2c3c(sc2=N)CCCC3)cc1` [pifithrin-α], the DUX4-mediated myotube death entry with FSHD-myotubes was “efficiently prevented DUX4-mediated myotube death”.
On to Arsenic trioxide, for which, in the assay with FSHD-myotubes, the DUX4-mediated myotube death entry is given as “efficiently prevented DUX4-mediated myotube death”.
As for `O=C1O[C@H]([C@@H](O)CO)C(O)=C1O` [ascorbic acid], in the assay with FSHD-myotubes, the DUX4-mediated myotube death result is on record as “observed DUX4-dependent myotube apoptosis despite treatments”.

For the origin of these results see patent publication US20150301067A1, “METHODS AND ASSAYS FOR FACIOSCAPULOHUMERAL MUSCULAR DYSTROPHY” (UNIVERSITY OF WASHINGTON THROUGH ITS CENTER FOR …, priority 2012, published 2015).
